# Measured values: US20230064292A1, “METHODS OF TREATING PSMA-POSITIVE CANCER USING RADIONUCLIDE THERAPY” (priority 2020, published 2023)
# “And” between values parts separate entries of the source, which are not always exact repeats. Equal values may be shown once. “Also recorded” adds a separate entry of the source. Marks after values point to notes of the source that are not given here.
# Assays:
# [1] = Preclinical rat studies of CTT1403 kidney exposure; format: in vivo
# From the text: CTT1403 localization in various organs is accomplished by estimating dosimetry using SPECT/CT or SPECT/MRI imaging of the radioisotope component (using the gamma particle emission) of CTT1403, ^177Lu, up to 8 days after the first dose. […] Preclinical studies in rats with CTT1403 identified the kidneys as the dose limiting organ. Table 2, below, summarizes kidney dosimetry calculated from the first 15 patients enrolled in the study after receipt of escalating doses of CTT1403 and contrasts it with the predicted kidney exposure from rat studies. […] Preclinical studies in rats estimated expected kidney exposure of ˜5.2 Gy/GBq. […] CTT1403 may be sequestered in tumors and under exposing the kidney.
# PSMA+ tumors = test: Tumor dosimetry and uptake by SPECT imaging in patients; format: in vivo, human
# From the text: In addition to assessing radiation exposure to dose limiting organs, it is also feasible to use SPECT/CT or SPECT/MRI imaging and dosimetry to estimate CTT1403 dose to the tumor, which could indicate efficacy.
# CTT1057 PSMA+ PET is used to screen patients for PSMA avid tumors prior to enrollment into the clinical trial. SPECT/CT images are collected serially on days 1, 3, 5 and 8 following CTT1403 dose administration to assess dosimetry, or exposure of normal organs and the tumor to the radionuclide, 177-lutetium. […] FIGS. 2-7 show the PET images collected prior to and after CTT1403 and serial SPECT/CT images collected from patients enrolled in the clinical trial. Further, Table 4 compares the doses in kidney and tumor reported by Violet et al (Violet, J., et al., “Dosimetry of (177)Lu-PSMA-617 in Metastatic Castration-Resistant Prostate Cancer: Correlations Between Pretherapeutic Imaging and Whole-Body Tumor Dosimetry with Treatment Outcomes” J Nucl Med, 2019. 60(4): p. 517-523) compared to findings to date in patients administered CTT1403.
# [2] = Pharmacokinetics of CTT1403 in mCRPC subjects (radioactivity of blood samples); format: in vivo, human
# Description: In order to investigate the pharmacokinetics of CTT1403, doses were administered by IV to fifteen subjects. The subjects each had histologically confirmed prostate adenocarcinoma that was metastatic and castration resistant (mCRPA). Subjects with de novo small cell carcinoma of the prostate were excluded. The subjects further had at least three metastatic foci avid for PSMA-specific PET agent CTT1057 or 68Ga-PSMA-11 uptake. PSMA avidity was defined as SUVmax>mediastinal blood pool. The subjects had received docetaxel, were ineligible for docetaxel, or had refused docetaxel. They all further had progression by the PCWG3 criteria during or after treatment with abiraterone, enzalutamide, and/or apalutamide, and had serum testosterone<50 ng/dL. Subjects without a history of bilateral orchiectomy were required to remain on a luteinizing hormone-releasing hormone (LHRH) analog during the course of the protocol therapy.
# Pharmacokinetics assessment follows the movement of drugs throughout the body, including measurement of the drug's half-life in circulation. The longer a drug remains available in circulation before being cleared from the body, the greater the opportunity for it to meet its target and achieve the desired therapeutic effect. To measure pharmacokinetics, remaining CTT1403 was estimated by measuring the radioactivity of blood sample withdrawn at particular time points. Each patient received a dose ranging from 0.75 GBq to 7.5 GBq.
# This is already more than a 5.3-fold greater distribution phase and 3.5-fold greater elimination phase than the PSMA-617 agent (without the albumin binder) and will further increase as the dose increases. […] CTT anticipates that these early observations will translate to compelling efficacy as the trial progresses. Table 1 reports the blood distribution and elimination half-lives for 13 of 15 patients enrolled in the study. […] Longer clearance half-lives will advantageously yield enhanced drug delivery as CTT1403 has more time to find and bind to expressed PSMA. This effect also allows more time for the therapeutic agent to reach smaller tumors or poorly-vascularized tumors. Longer systemic circulation of CTT1403 afforded by the albumin motif believed to lead to lower dosing of the kidneys, a dose-limiting factor, allowing higher dosages to be safely administered.
# [3] = CTT1403 (7.5 GBq +/− 10%), preliminary, 2 tumors per patient in patients 14 and 15
# [4] = patient 1, dose 0.73 GBq (19.6 mCi)
# [5] = patient 4, dose 3.0 GBq (81.1 mCi)
# [6] = patient 6, dose 2.98 GBq (80.5 mCi)
# [7] = patient 14, dose 7.98 GBq (215.7 mCi)
# [8] = patient 15, dose 7.77 GBq (210 mCi)
# [9] = 1.5 GBq IV (1st patient at this dose)
# [10] = 2.0 GBq IV (1st patient at this dose)
# [11] = 3.0 GBq IV (1st patient at this dose)
# [12] = 3.0 GBq IV (2nd patient at this dose)
# [13] = 3.0 GBq IV (3rd patient at this dose)
# [14] = 4.5 GBq IV (1st patient at this dose)
# [15] = 4.5 GBq IV (2nd patient at this dose)
# [16] = 4.5 GBq IV (3rd patient at this dose)
# [17] = 6.0 GBq IV (1st patient at this dose)
# [18] = 6.0 GBq IV (2nd patient at this dose)
# [19] = 6.0 GBq IV (3rd patient at this dose)
# [20] = 7.5 GBq IV (1st patient at this dose)
# [21] = 7.5 GBq IV (2nd patient at this dose)
# [22] = half-life of CTT1403 vs reported 177Lu-PSMA-617
# [23] = mean of 13 patients, 1.5-7.5 GBq IV, preliminary
structure (smiles),measurement,setting,value
O=C(O)CC[C@H](NP(=O)(O)OCCC[C@H](NC(=O)CC[C@H](NC(=O)CCCCCNC(=O)CCC(NC(=O)CCOCCOCCOCCOCCNC(=O)CCC(=O)N1Cc2ccccc2-c2c(nnn2CCCNC(=O)CN2CCN3CCN4CCN(CC2)CC(=O)[O][177Lu]([O]C(=O)C3)[O]C(=O)C4)-c2ccccc21)C(=O)NC(CCCCNC(=O)CCCc1ccc(I)cc1)C(=O)O)C(=O)O)C(=O)O)C(=O)O (some centres unmarked) [CTT1403],dose limiting organ,[1]; preclinical studies in rats,kidneys
same,expected kidney exposure estimated from preclinical studies in rats,[1]; predicted human kidney exposure from rat studies,~5.2 Gy/GBq
same,CTT1403 within tumor by SPECT,"PSMA+ tumors; 4.5 GBq, through 7 days post-administration (FIG. 9, patient 12)",uptake of CTT1403 in tumors; also recorded: still clearly present
same,uptake of CTT1403 in tumors by SPECT,"PSMA+ tumors; 24 hours after administration of 7.5 GBq (FIG. 10, patient 17)",distinct uptake
same,"Tumor Dose to date, Dose Gy/GBq",PSMA+ tumors; [3],1.948* Gy/GBq
same,"Tumor Dose to date, Mean Dose (Gy)",PSMA+ tumors; [3],14.61* Gy
same,tumor dose,PSMA+ tumors; administered by 3.0 GBq,~1 Gy
same,Tumor 1 (Gy),PSMA+ tumors; [4],0.122 Gy
same,Tumor 2 (Gy),PSMA+ tumors; [4],0.1164 Gy
same,Tumor 1 (Gy),"PSMA+ tumors; patient 2, dose 1.5 GBq (40.5 mCi)",0.2461 Gy
same,Tumor 2 (Gy),"PSMA+ tumors; patient 3, dose 2.03 GBq (54.8 mCi)",0.2553 Gy
same,Tumor 1 (Gy),PSMA+ tumors; [5],1.282 Gy
same,Tumor 2 (Gy),PSMA+ tumors; [5],0.3729 Gy
same,Tumor 3 (Gy),PSMA+ tumors; [5],1.906 Gy
same,Tumor 1 (Gy),"PSMA+ tumors; patient 5, dose 2.95 GBq (79.8 mCi)",1.639 Gy
same,Tumor 1 (Gy),PSMA+ tumors; [6],1.104 Gy
same,Tumor 2 (Gy),PSMA+ tumors; [6],0.329 Gy
same,Tumor 1 (Gy),PSMA+ tumors; [7],13.6 Gy
same,Tumor 2 (Gy),PSMA+ tumors; [7],12.7 Gy
same,Tumor 1 (Gy),PSMA+ tumors; [8],22.4 Gy
same,Tumor 2 (Gy),PSMA+ tumors; [8],9.74 Gy
same,tumor dose compared to 177Lu-PSMA-617,"PSMA+ tumors; patients at 7.5 GBq+/−10%, early reported",at least similar and possibly even greater
same,tumor Gy/GBq compared to 177Lu-PSMA-617 in patients with PSA<50%,PSMA+ tumors; vs patients with less than a 50% reduction in circulating PSA,significantly outperform
same,Distribution Half-life,[2]; [9],0.75 h
same,Elimination Half-life 2,[2]; [9],28.88 h
same,Distribution Half-life,[2]; [10],1.04 h
same,Elimination Half-life 2,[2]; [10],23.90 h
same,Distribution Half-life,[2]; [11],0.51 h
same,Elimination Half-life 2,[2]; [11],27.73 h
same,Distribution Half-life,[2]; [12],0.89 h
same,Elimination Half-life 2,[2]; [12],31.51 h
same,Distribution Half-life,[2]; [13],0.70 h
same,Elimination Half-life 2,[2]; [13],36.48 h
same,Distribution Half-life,[2]; [14],0.85 h
same,Elimination Half-life 2,[2]; [14],33.01 h
same,Distribution Half-life,[2]; [15],0.85 h
same,Elimination Half-life 2,[2]; [15],34.66 h
same,Distribution Half-life,[2]; [16],0.85 h
same,Elimination Half-life 2,[2]; [16],43.32 h
same,Distribution Half-life,[2]; [17],0.78 h
same,Elimination Half-life 2,[2]; [17],46.21 h
same,Distribution Half-life,[2]; [18],0.57 h
same,Elimination Half-life 2,[2]; [18],30.14 h
same,Distribution Half-life,[2]; [19],1.06 h
same,Elimination Half-life 2,[2]; [19],33.01 h
same,Distribution Half-life,[2]; [20],1.20 h
same,Elimination Half-life 2,[2]; [20],57.76 h
same,Distribution Half-life,[2]; [21],1.00 h
same,Elimination Half-life 2,[2]; [21],57.76 h
same,CTT1403 detection in blood,"[2]; after 2 weeks, subjects who received the 7.5 GBq dose",still detected
same,fold greater distribution phase than the PSMA-617 agent,[2]; [22],> 5.3 fold
same,fold greater elimination phase than the PSMA-617 agent,[2]; [22],> 3.5 fold
same,Distribution half-life (mean),[2]; [23],0.85 ± 0.2 h
same,Elimination half-life (mean),[2]; [23],37.3 ± 10.9 h and 37.26 h
same,"Distribution phase half-life, range","[2]; range over patients, 1.5-7.5 GBq IV",0.51 to 1.2 h
same,circulation time compared with 177Lu-PSMA-617,[2]; vs agent lacking the albumin binding moiety,at least two to ten-fold greater
